# Assay results as given in PMC6041282, “Inhibition and Eradication of Pseudomonas aeruginosa Biofilms by Host Defence Peptides” (Scientific Reports, 2018).
# Where no end group is shown, it is not given here.
# Tested on: planktonic P. aeruginosa
# Conditions: broth dilution in MHB, 0-40 μM peptide, no visual growth after 24 h at 37 °C, polypropylene 96 wells plate
row,Molecule,MIC
1,CC[C@H](C)[C@H](NC(=O)[C@H](CCCCN)NC(=O)[C@H](CCC(=O)O)NC(=O)[C@H](CCCCN)NC(=O)[C@H](CO)NC(=O)[C@H](CCCCN)NC(=O)[C@H](CCCNC(=N)N)NC(=O)[C@H](Cc1ccccc1)NC(=O)[C@H](Cc1ccccc1)NC(=O)[C@H](CC(=O)O)NC(=O)CNC(=O)[C@H](CC(C)C)NC(=O)[C@@H](N)CC(C)C)C(=O)NCC(=O)N[C@@H](CCCCN)C(=O)N[C@@H](CCC(=O)O)C(=O)N[C@@H](Cc1ccccc1)C(=O)N[C@@H](CCCCN)C(=O)N[C@@H](CCCNC(=N)N)C(=O)N[C@H](C(=O)N[C@H](C(=O)N[C@@H](CCC(N)=O)C(=O)N[C@@H](CCCNC(=N)N)C(=O)N[C@H](C(=O)N[C@@H](CCCCN)C(=O)N[C@@H](CC(=O)O)C(=O)N[C@@H](Cc1ccccc1)C(=O)N[C@@H](CC(C)C)C(=O)N[C@@H](CCCNC(=N)N)C(=O)N[C@@H](CC(N)=O)C(=O)N[C@@H](CC(C)C)C(=O)N[C@H](C(=O)N1CCC[C@H]1C(=O)N[C@@H](CCCNC(=N)N)C(=O)N[C@H](C(=O)N[C@@H](CCC(=O)O)C(=O)N[C@@H](CO)C(=O)O)[C@@H](C)O)C(C)C)[C@@H](C)CC)C(C)C)[C@@H](C)CC [LL-37],10 µM
2,GLLRKGGEKIGEKLKKIGQKIKNFFQKLVPQPEQ [CRAMP],40 µM

# Same assay, conditions: planktonic, 24 h
MIC,Molecule,MBC
2.5 to 5 µM,KRFGRLAKSFLRMRILLPRRKILLAS [eCATH-1],5 to 10 µM
> 40 µM,KRFHSVGSLIQRHQQMIRDKSEATRHGIRIITRPKLLLAS [eCATH-3],> 40 µM
> 40 µM,KRRHWFPLSFQEFLEQLRRFRDQLPFP [eCATH-2],> 40 µM
5 to 10 µM,RFGRFLRKIRRFRPKVTITIQGSARF [cCATH-2],10 to 20 µM
40 µM,RIIDLLWRVRRPQKPKFVTVWVR [PMAP-23],> 40 µM
40 µM,RLKELITTGGQKIGEKIRRIGQRIKDFFKNLQPREEKS [K9CATH],> 40 µM
5 to 10 µM,RRRPRPPYLPRPRPPPFFPPRLPPRIPPGFPPRFPPRFP [PR-39],10 µM
–,RVKRFWPLVPVAINTVAAGINLYKAIRRK [cCATH-3],5 to 10 µM

# Same assay, conditions: wells without visual growth plated on TSA, 24 h at 37 °C
row,Molecule,MBC
1,CC[C@H](C)[C@H](NC(=O)[C@H](CCCCN)NC(=O)[C@H](CCC(=O)O)NC(=O)[C@H](CCCCN)NC(=O)[C@H](CO)NC(=O)[C@H](CCCCN)NC(=O)[C@H](CCCNC(=N)N)NC(=O)[C@H](Cc1ccccc1)NC(=O)[C@H](Cc1ccccc1)NC(=O)[C@H](CC(=O)O)NC(=O)CNC(=O)[C@H](CC(C)C)NC(=O)[C@@H](N)CC(C)C)C(=O)NCC(=O)N[C@@H](CCCCN)C(=O)N[C@@H](CCC(=O)O)C(=O)N[C@@H](Cc1ccccc1)C(=O)N[C@@H](CCCCN)C(=O)N[C@@H](CCCNC(=N)N)C(=O)N[C@H](C(=O)N[C@H](C(=O)N[C@@H](CCC(N)=O)C(=O)N[C@@H](CCCNC(=N)N)C(=O)N[C@H](C(=O)N[C@@H](CCCCN)C(=O)N[C@@H](CC(=O)O)C(=O)N[C@@H](Cc1ccccc1)C(=O)N[C@@H](CC(C)C)C(=O)N[C@@H](CCCNC(=N)N)C(=O)N[C@@H](CC(N)=O)C(=O)N[C@@H](CC(C)C)C(=O)N[C@H](C(=O)N1CCC[C@H]1C(=O)N[C@@H](CCCNC(=N)N)C(=O)N[C@H](C(=O)N[C@@H](CCC(=O)O)C(=O)N[C@@H](CO)C(=O)O)[C@@H](C)O)C(C)C)[C@@H](C)CC)C(C)C)[C@@H](C)CC [LL-37],10 to 20 µM
2,GLLRKGGEKIGEKLKKIGQKIKNFFQKLVPQPEQ [CRAMP],> 40 µM
